Our source for the EC50 and inhibition values is US6573262B2, “Composition and antiviral activity of substituted indoleoxoacetic piperazine derivatives” (priority 2000, dated 2003).

This assay concerns HIV-1 single-round infectious reporter virus. Briefly: microbe, parasite or virus in culture. Type of assay: cell-based. As to conditions: for EC50: Human immunodeficiency virus 1, HeLa-CD4/CCR5, 72 h, read-out: EC50 Group from Table 1; for inhibition at 10 µM: Human immunodeficiency virus 1, HeLa-CD4/CCR5, read-out: % Inhibition @ 10 uM.

As to `O=C(C(=O)N1CCN(C(=O)c2ccccc2)CC1)c1c[nH]c2c(-c3ccccc3)ccc(F)c12` [Example 1], the EC50 was less than 1000 nM and the inhibition at 10 µM is more than 98%.

Consider `CSc1ccccc1-c1ccc(F)c2c(C(=O)C(=O)N3CCN(C(=O)c4ccccc4)CC3)c[nH]c12` [Example 2], for which the EC50 is less than 1000 nM and the inhibition at 10 µM was more than 98%.

`COc1ccc(-c2ccc(F)cc2)c2[nH]cc(C(=O)C(=O)N3CCN(C(=O)c4ccccc4)CC3)c12` [Example 3]: the EC50 is less than 1000 nM and the inhibition at 10 µM was more than 98%.

As for `COc1ccc(-c2ccc(F)c3c(C(=O)C(=O)N4CCN(C(=O)c5ccccc5)CC4)c[nH]c23)cc1` [Example 4], the EC50 was less than 1000 nM and the inhibition at 10 µM was more than 98%.

With `O=C(C(=O)N1CCN(C(=O)c2ccccc2)CC1)c1c[nH]c2c(-c3ccccn3)ccc(F)c12` [Example 5], the EC50 was less than 1000 nM and the inhibition at 10 µM is more than 98%.

In the case of `O=C(C(=O)N1CCN(C(=O)c2ccccc2)CC1)c1c[nH]c2c(-c3cccnc3)ccc(F)c12` [Example 6], the EC50 is less than 1000 nM and the inhibition at 10 µM was more than 98%.

In the case of `COc1ccc(-c2ccccn2)c2[nH]cc(C(=O)C(=O)N3CCN(C(=O)c4ccccc4)CC3)c12` [Example 7], the EC50 is less than 1000 nM and the inhibition at 10 µM was more than 98%.

Regarding `COc1ccc(-c2cccnc2)c2[nH]cc(C(=O)C(=O)N3CCN(C(=O)c4ccccc4)CC3)c12` [Example 8], the EC50 is less than 1000 nM and the inhibition at 10 µM was more than 98%.

`O=C(C(=O)N1CCN(C(=O)c2ccccc2)CC1)c1c[nH]c2c(-c3cncnc3)ccc(F)c12` [Example 9]: the EC50 is less than 1000 nM and the inhibition at 10 µM was more than 98%.

In the case of `COc1ccc(-c2ccco2)c2[nH]cc(C(=O)C(=O)N3CCN(C(=O)c4ccccc4)CC3)c12` [Example 11], the EC50 is less than 1000 nM and the inhibition at 10 µM is more than 98%.

For the compound `O=C(C(=O)N1CCN(C(=O)c2ccccc2)CC1)c1c[nH]c2c(-c3cccs3)ccc(F)c12` [Example 12], the EC50 was less than 1000 nM and the inhibition at 10 µM is more than 98%.

For `O=C(C(=O)N1CCN(C(=O)c2ccccc2)CC1)c1c[nH]c2c(-c3ccsc3)ccc(F)c12` [Example 13], the EC50 was less than 1000 nM and the inhibition at 10 µM was more than 98%.

Consider `O=C(C(=O)N1CCN(C(=O)c2ccccc2)CC1)c1c[nH]c2c(-c3nccs3)ccc(F)c12` [Example 14], for which the EC50 is less than 1000 nM and the inhibition at 10 µM was more than 98%.

For the compound `COc1ccc(-c2nccs2)c2[nH]cc(C(=O)C(=O)N3CCN(C(=O)c4ccccc4)CC3)c12` [Example 15], the concentration for a half-maximal effect (EC50) was less than 1000 nM and the inhibition at 10 µM is more than 98%.

Turning to `O=C(C(=O)N1CCN(C(=O)c2ccccc2)CC1)c1c[nH]c2c(-c3ccc(Cl)s3)ccc(F)c12` [Example 16], the EC50 is less than 1000 nM and the inhibition at 10 µM is more than 98%.

For `O=C(C(=O)N1CCN(C(=O)c2ccccc2)CC1)c1c[nH]c2c(-c3cnco3)ccc(F)c12` [Example 17], the EC50 is less than 1000 nM and the inhibition at 10 µM is more than 98%.

As for `O=C(C(=O)N1CCN(C(=O)c2ccccc2)CC1)c1c[nH]c2c(-c3nc4ccccc4o3)ccc(F)c12` [Example 18], the EC50 is less than 1000 nM and the inhibition at 10 µM was more than 98%.

`COc1ccc(-c2cc3ccccc3s2)c2[nH]cc(C(=O)C(=O)N3CCN(C(=O)c4ccccc4)CC3)c12` [Example 19]: the EC50 was less than 1000 nM and the inhibition at 10 µM is more than 98%.

In the case of `O=C(C(=O)N1CCN(C(=O)c2ccccc2)CC1)c1c[nH]c2c(-c3nn[nH]n3)ccc(F)c12` [Example 20], the EC50 was less than 1000 nM and the inhibition at 10 µM is more than 98%.

On to `Cn1nnc(-c2ccc(F)c3c(C(=O)C(=O)N4CCN(C(=O)c5ccccc5)CC4)c[nH]c23)n1` [Example 21], for which the EC50 is less than 1000 nM and the inhibition at 10 µM was more than 98%.

In the case of `COC(=O)Cn1nnc(-c2ccc(F)c3c(C(=O)C(=O)N4CCN(C(=O)c5ccccc5)CC4)c[nH]c23)n1` [Example 22], the EC50 was less than 1000 nM and the inhibition at 10 µM is more than 98%.

Consider `CCn1nnc(-c2ccc(F)c3c(C(=O)C(=O)N4CCN(C(=O)c5ccccc5)CC4)c[nH]c23)n1` [Example 23], for which the EC50 is less than 1000 nM and the inhibition at 10 µM is more than 98%.

As to `CCCn1nnc(-c2ccc(F)c3c(C(=O)C(=O)N4CCN(C(=O)c5ccccc5)CC4)c[nH]c23)n1` [Example 24], the EC50 is less than 1000 nM and the inhibition at 10 µM was more than 98%.

Take `O=C(C(=O)N1CCN(C(=O)c2ccccc2)CC1)c1c[nH]c2c(-c3nnn(Cc4ccccc4)n3)ccc(F)c12` [Example 25]: the EC50 is less than 1000 nM and the inhibition at 10 µM is more than 98%.

Consider `C=CCn1nnc(-c2ccc(F)c3c(C(=O)C(=O)N4CCN(C(=O)c5ccccc5)CC4)c[nH]c23)n1` [Example 26], for which the EC50 was less than 1000 nM and the inhibition at 10 µM is more than 98%.

Regarding `N/C(=N\O)c1ccc(F)c2c(C(=O)C(=O)N3CCN(C(=O)c4ccccc4)CC3)c[nH]c12` [Example 27], the EC50 is less than 1000 nM and the inhibition at 10 µM is more than 98%.

As for `O=C(C(=O)N1CCN(C(=O)c2ccccc2)CC1)c1c[nH]c2c(-c3noc(=O)[nH]3)ccc(F)c12` [Example 28], the EC50 was less than 1000 nM and the inhibition at 10 µM is more than 98%.

As for `COc1nc(-c2ccc(F)c3c(C(=O)C(=O)N4CCN(C(=O)c5ccccc5)CC4)c[nH]c23)no1` [Example 29], the EC50 was less than 1000 nM and the inhibition at 10 µM was more than 98%.

`O=C(C(=O)N1CCN(C(=O)c2ccccc2)CC1)c1c[nH]c2c(/C=N/O)ccc(F)c12` [Example 30]: the EC50 is less than 1000 nM and the inhibition at 10 µM was more than 98%.

Consider `O=C(O)CO/N=C/c1ccc(F)c2c(C(=O)C(=O)N3CCN(C(=O)c4ccccc4)CC3)c[nH]c12` [Example 31], for which the EC50 is less than 1000 nM and the inhibition at 10 µM is more than 98%.

With `O=C(C(=O)N1CCN(C(=O)c2ccccn2)CC1)c1c[nH]c2c(-c3nn[nH]n3)ccc(F)c12` [Example 32], the EC50 was less than 1000 nM and the inhibition at 10 µM is more than 98%.

Take `C[C@@H]1CN(C(=O)c2ccccc2)CCN1C(=O)C(=O)c1c[nH]c2c(-c3nn[nH]n3)ccc(F)c12` [Example 33]: the EC50 is less than 1000 nM and the inhibition at 10 µM is more than 98%.

For `C[C@@H]1CN(C(=O)c2ccccn2)CCN1C(=O)C(=O)c1c[nH]c2c(-c3nn[nH]n3)ccc(F)c12` [Example 34], the EC50 was less than 1000 nM and the inhibition at 10 µM is more than 98%.

`O=C(Nc1cccnc1)c1ccc(F)c2c(C(=O)C(=O)N3CCN(C(=O)c4ccccc4)CC3)c[nH]c12` [Example 35]: the concentration giving a half-maximal response (EC50) was less than 1000 nM and the inhibition at 10 µM was more than 98%.

For the compound `O=C(NC1=NCCS1)c1ccc(F)c2c(C(=O)C(=O)N3CCN(C(=O)c4ccccc4)CC3)c[nH]c12` [Example 36], the EC50 is less than 1000 nM and the inhibition at 10 µM was more than 98%.

For the compound `Cc1cc(NC(=O)c2ccc(F)c3c(C(=O)C(=O)N4CCN(C(=O)c5ccccc5)CC4)c[nH]c23)on1` [Example 37], the EC50 is less than 1000 nM and the inhibition at 10 µM is more than 98%.

As to `O=C(Nc1ccccn1)c1ccc(F)c2c(C(=O)C(=O)N3CCN(C(=O)c4ccccc4)CC3)c[nH]c12` [Example 38], the EC50 was less than 1000 nM and the inhibition at 10 µM was more than 98%.

In the case of `O=C(Nc1ccncc1)c1ccc(F)c2c(C(=O)C(=O)N3CCN(C(=O)c4ccccc4)CC3)c[nH]c12` [Example 39], the EC50 is less than 1000 nM and the inhibition at 10 µM was more than 98%.

For `O=C(NS(=O)(=O)c1ccccc1)c1ccc(F)c2c(C(=O)C(=O)N3CCN(C(=O)c4ccccc4)CC3)c[nH]c12` [Example 40], the EC50 is less than 1000 nM and the inhibition at 10 µM is more than 98%.

Turning to `O=C(Nc1nc2ccccc2[nH]1)c1ccc(F)c2c(C(=O)C(=O)N3CCN(C(=O)c4ccccc4)CC3)c[nH]c12` [Example 41], the EC50 is less than 1000 nM and the inhibition at 10 µM is more than 98%.

For the compound `NC(=O)c1ccc(F)c2c(C(=O)C(=O)N3CCN(C(=O)c4ccccc4)CC3)c[nH]c12` [Example 42], the EC50 was less than 1000 nM and the inhibition at 10 µM was more than 98%.

`CN(C)CCNC(=O)c1ccc(F)c2c(C(=O)C(=O)N3CCN(C(=O)c4ccccc4)CC3)c[nH]c12` [Example 44]: the EC50 is less than 1000 nM and the inhibition at 10 µM turned out to be 97%.

As to `O=C(NCc1ccccc1)c1ccc(F)c2c(C(=O)C(=O)N3CCN(C(=O)c4ccccc4)CC3)c[nH]c12` [Example 45], the EC50 is less than 1000 nM and the inhibition at 10 µM was more than 98%.

On to `CONC(=O)c1ccc(F)c2c(C(=O)C(=O)N3CCN(C(=O)c4ccccc4)CC3)c[nH]c12` [Example 46], for which the EC50 is less than 1000 nM and the inhibition at 10 µM was more than 98%.

For `CNC(=O)c1ccc(F)c2c(C(=O)C(=O)N3CCN(C(=O)c4ccccc4)CC3)c[nH]c12` [Example 47], the EC50 was less than 1000 nM and the inhibition at 10 µM was more than 98%.

On to `O=C(NCCc1c[nH]c2ccccc12)c1ccc(F)c2c(C(=O)C(=O)N3CCN(C(=O)c4ccccc4)CC3)c[nH]c12` [Example 48], for which the EC50 was less than 1000 nM and the inhibition at 10 µM was more than 98%.

In the case of `O=C(NCCc1c[nH]cn1)c1ccc(F)c2c(C(=O)C(=O)N3CCN(C(=O)c4ccccc4)CC3)c[nH]c12` [Example 49], the EC50 was less than 1000 nM and the inhibition at 10 µM was more than 98%.

With `O=C(NCc1ccco1)c1ccc(F)c2c(C(=O)C(=O)N3CCN(C(=O)c4ccccc4)CC3)c[nH]c12` [Example 50], the EC50 is less than 1000 nM and the inhibition at 10 µM is more than 98%.

`O=C(NCc1cccs1)c1ccc(F)c2c(C(=O)C(=O)N3CCN(C(=O)c4ccccc4)CC3)c[nH]c12` [Example 51]: the EC50 was less than 1000 nM and the inhibition at 10 µM was more than 98%.

Consider `O=C(NCCN1CCOCC1)c1ccc(F)c2c(C(=O)C(=O)N3CCN(C(=O)c4ccccc4)CC3)c[nH]c12` [Example 52], for which the EC50 was less than 1000 nM and the inhibition at 10 µM was more than 98%.
